Assay results from publication PMC9683047, “Design, synthesis and biological evaluation of 4-aminoquinoline derivatives as receptor-interacting protein kinase 2 (RIPK2) inhibitors” (Journal of Enzyme Inhibition and Medicinal Chemistry, 2022).

How the values were obtained:
Assay type in all cases: biochemical
p70S6K(h) = biological target: T1, p70S6K(h) (Homo sapiens, UniProt P23443); experiment: Kinase selectivity panel: p70S6K
T1 construct: purchased Eurofins (Millipore) KinaseProfiler Diversity Panel
Procedure: (§1) To confirm the anti-inflammatory effect was caused by RIPK2 inhibition, compound 14 was subjected to kinase selectivity evaluation (Figure 4). Kinase selectivity profile of compound 14 as shown by the diversity kinase Panel screen against 70 kinases assayed at 1 µM. Among all tested 70 kinases, only five were inhibited over 90% at 1 µM including Fyn, Lyn, BTK, Abl and RIPK2. Three kinases including KDR, CDK9 and LOK were inhibited 50–90% at 1 µM.

MAPKAP-K2(h) = biological target: T2, MAPKAP-K2(h) (Homo sapiens, UniProt P49137); experiment: Kinase selectivity panel: MAPKAP-K2; conditions: 1 µM
T2 construct: purchased Eurofins (Millipore) KinaseProfiler Diversity Panel
Procedure: as §1

eEF-2K(h) = biological target: T3, eEF-2K(h) (Homo sapiens, UniProt O00418); experiment: Kinase selectivity panel: eEF-2K
T3 construct: purchased Eurofins (Millipore) KinaseProfiler Diversity Panel
Procedure: as §1

[1] = biological target: T4, PI3 Kinase (p110d/p85a)(h) (Homo sapiens, UniProt O00329); experiment: Kinase selectivity panel: PI3 Kinase (p110d/p85a); conditions: 1 µM
T4 construct: purchased Eurofins (Millipore) KinaseProfiler Diversity Panel
Procedure: as §1

RIPK1 = biological target: T5, RIPK1 (Homo sapiens, UniProt Q13546); experiment: RIPK1 inhibition rate at 1 µM
T5 sequence (Q13546 1-671): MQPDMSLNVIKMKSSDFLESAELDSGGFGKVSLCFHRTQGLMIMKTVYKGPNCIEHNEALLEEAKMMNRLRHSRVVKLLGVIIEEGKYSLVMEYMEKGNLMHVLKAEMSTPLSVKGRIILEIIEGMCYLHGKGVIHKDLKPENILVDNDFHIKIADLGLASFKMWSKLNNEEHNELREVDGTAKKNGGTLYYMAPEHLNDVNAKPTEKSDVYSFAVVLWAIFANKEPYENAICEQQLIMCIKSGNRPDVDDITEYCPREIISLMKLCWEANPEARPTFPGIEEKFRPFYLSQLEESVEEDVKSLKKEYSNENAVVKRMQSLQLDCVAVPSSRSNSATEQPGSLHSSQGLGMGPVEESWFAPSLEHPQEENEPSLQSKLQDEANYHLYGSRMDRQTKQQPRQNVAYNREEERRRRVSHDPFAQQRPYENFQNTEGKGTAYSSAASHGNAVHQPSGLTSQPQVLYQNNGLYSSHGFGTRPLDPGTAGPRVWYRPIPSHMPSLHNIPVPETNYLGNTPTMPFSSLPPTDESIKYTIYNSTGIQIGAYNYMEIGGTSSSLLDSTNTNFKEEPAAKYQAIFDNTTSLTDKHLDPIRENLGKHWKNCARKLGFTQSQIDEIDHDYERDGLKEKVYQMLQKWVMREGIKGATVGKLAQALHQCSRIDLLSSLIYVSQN
Procedure: Table 4. Selectivity, ClogP and LipE of compound 14, 15, 21, 32, 36. | column: RIPK1 IR@1µM (%)

TAK1(h) = biological target: T6, TAK1(h) (Homo sapiens, UniProt O43318); experiment: Kinase selectivity panel: TAK1; conditions: 1 µM
T6 construct: purchased Eurofins (Millipore) KinaseProfiler Diversity Panel
Procedure: as §1

Abl(h) = biological target: T7, Abl(h) (Homo sapiens, UniProt P00519); experiment: Kinase selectivity panel: Abl
T7 construct: purchased Eurofins (Millipore) KinaseProfiler Diversity Panel
T7 sequence (P00519 whole entry): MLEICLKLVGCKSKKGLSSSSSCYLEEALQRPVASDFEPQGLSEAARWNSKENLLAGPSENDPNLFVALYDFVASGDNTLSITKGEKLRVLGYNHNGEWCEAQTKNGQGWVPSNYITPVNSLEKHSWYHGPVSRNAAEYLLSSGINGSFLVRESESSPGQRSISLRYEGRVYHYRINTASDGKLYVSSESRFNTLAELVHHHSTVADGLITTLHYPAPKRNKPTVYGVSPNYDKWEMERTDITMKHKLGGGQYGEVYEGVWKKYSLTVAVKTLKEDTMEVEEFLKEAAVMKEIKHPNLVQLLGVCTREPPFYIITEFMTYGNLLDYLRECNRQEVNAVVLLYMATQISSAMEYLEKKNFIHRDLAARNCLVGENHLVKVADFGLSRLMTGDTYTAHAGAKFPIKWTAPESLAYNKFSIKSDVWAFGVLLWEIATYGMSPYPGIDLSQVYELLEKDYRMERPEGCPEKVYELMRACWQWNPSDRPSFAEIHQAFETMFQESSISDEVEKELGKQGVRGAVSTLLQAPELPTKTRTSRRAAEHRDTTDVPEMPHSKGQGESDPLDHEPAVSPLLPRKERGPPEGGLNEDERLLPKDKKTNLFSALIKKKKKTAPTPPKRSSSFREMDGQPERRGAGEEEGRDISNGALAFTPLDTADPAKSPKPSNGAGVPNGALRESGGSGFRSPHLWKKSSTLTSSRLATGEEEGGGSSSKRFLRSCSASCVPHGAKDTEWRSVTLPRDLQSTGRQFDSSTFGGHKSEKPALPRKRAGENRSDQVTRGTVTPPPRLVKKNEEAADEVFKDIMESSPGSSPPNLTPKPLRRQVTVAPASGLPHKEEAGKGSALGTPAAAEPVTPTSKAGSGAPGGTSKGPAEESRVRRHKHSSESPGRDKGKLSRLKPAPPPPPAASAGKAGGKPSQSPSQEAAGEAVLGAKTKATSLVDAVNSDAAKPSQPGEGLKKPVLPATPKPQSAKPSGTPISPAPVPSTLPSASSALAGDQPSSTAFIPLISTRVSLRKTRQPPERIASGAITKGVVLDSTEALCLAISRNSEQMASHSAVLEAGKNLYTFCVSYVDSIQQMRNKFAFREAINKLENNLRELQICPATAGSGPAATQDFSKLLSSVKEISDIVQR
Procedure: as §1

PKA(h) = biological target: T8, PKA(h) (Homo sapiens, UniProt P17612); experiment: Kinase selectivity panel: PKA; conditions: 1 µM
T8 construct: purchased Eurofins (Millipore) KinaseProfiler Diversity Panel
Procedure: as §1

EGFR(h) = biological target: T9, EGFR(h) (Homo sapiens, UniProt P00533); experiment: Kinase selectivity panel: EGFR; design: unit not given here
T9 construct: purchased Eurofins (Millipore) KinaseProfiler Diversity Panel
Procedure: as §1

CDK2/cyclinA(h) = biological target: T10, CDK2/cyclinA(h) (Homo sapiens, UniProt P24941); experiment: Kinase selectivity panel: CDK2/cyclinA
T10 construct: purchased Eurofins (Millipore) KinaseProfiler Diversity Panel
Procedure: as §1

ASK1(h) = biological target: T11, ASK1(h) (Homo sapiens, UniProt Q99683); experiment: Kinase selectivity panel: ASK1
T11 construct: purchased Eurofins (Millipore) KinaseProfiler Diversity Panel
Procedure: as §1

GSK3β(h) = biological target: T12, GSK3β(h) (Homo sapiens, UniProt P49841); experiment: Kinase selectivity panel: GSK3β; conditions: 1 µM
T12 construct: purchased Eurofins (Millipore) KinaseProfiler Diversity Panel
T12 sequence (P49841 whole entry): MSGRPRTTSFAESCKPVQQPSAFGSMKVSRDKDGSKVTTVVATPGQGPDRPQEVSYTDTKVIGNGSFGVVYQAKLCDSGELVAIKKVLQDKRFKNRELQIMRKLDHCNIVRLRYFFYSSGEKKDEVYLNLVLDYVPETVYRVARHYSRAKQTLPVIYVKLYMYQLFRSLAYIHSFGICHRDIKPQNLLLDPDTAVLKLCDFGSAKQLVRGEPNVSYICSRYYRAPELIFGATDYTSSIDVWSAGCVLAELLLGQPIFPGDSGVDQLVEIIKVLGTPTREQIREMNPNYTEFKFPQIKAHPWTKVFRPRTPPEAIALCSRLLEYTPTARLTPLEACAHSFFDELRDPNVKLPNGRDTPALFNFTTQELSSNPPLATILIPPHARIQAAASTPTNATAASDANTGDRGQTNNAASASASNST
Procedure: as §1

Mnk2(h) = biological target: T13, Mnk2(h) (Homo sapiens, UniProt Q9HBH9); experiment: Kinase selectivity panel: Mnk2
T13 construct: purchased Eurofins (Millipore) KinaseProfiler Diversity Panel
Procedure: as §1

TBK1(h) = biological target: T14, TBK1(h) (Homo sapiens, UniProt Q9UHD2); experiment: Kinase selectivity panel: TBK1
T14 construct: purchased Eurofins (Millipore) KinaseProfiler Diversity Panel
Procedure: as §1

PKG1α(h) = biological target: T15, PKG1α(h) (Homo sapiens, UniProt Q13976); experiment: Kinase selectivity panel: PKG1α
T15 construct: purchased Eurofins (Millipore) KinaseProfiler Diversity Panel
Procedure: as §1

PDGFRβ(h) = biological target: T16, PDGFRβ(h) (Homo sapiens, UniProt P09619); experiment: Kinase selectivity panel: PDGFRβ
T16 construct: purchased Eurofins (Millipore) KinaseProfiler Diversity Panel
T16 sequence (P09619 33-1106): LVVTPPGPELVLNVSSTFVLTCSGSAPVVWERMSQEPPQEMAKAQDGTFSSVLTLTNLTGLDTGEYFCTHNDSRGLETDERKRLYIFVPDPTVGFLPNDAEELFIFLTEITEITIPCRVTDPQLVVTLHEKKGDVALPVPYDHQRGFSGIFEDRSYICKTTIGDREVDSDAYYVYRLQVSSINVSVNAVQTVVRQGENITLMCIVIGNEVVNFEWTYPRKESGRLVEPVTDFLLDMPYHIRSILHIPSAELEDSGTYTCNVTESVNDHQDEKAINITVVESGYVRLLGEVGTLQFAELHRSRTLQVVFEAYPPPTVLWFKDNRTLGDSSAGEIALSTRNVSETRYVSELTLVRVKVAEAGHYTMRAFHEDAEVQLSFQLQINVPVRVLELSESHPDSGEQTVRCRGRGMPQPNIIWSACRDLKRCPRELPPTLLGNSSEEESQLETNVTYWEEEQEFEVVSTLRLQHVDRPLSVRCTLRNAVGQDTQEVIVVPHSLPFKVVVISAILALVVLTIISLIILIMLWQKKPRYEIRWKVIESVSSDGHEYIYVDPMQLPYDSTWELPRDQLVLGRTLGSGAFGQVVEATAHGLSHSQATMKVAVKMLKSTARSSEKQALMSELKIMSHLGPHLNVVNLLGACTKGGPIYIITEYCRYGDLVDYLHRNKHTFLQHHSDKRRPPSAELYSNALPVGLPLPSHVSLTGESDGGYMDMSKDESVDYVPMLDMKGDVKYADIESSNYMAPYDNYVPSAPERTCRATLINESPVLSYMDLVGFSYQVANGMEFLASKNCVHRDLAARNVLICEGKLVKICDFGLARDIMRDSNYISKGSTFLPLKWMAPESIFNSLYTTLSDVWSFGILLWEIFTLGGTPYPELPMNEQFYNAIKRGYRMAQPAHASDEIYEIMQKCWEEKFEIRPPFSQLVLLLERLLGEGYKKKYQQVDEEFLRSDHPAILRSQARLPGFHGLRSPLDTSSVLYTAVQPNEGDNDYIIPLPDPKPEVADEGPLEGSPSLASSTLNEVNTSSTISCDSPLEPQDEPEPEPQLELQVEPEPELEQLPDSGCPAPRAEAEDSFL
Procedure: as §1

CK2α2(h) = biological target: T17, CK2α2(h) (Homo sapiens, UniProt P19784); experiment: Kinase selectivity panel: CK2α2
T17 construct: purchased Eurofins (Millipore) KinaseProfiler Diversity Panel
T17 sequence (P19784 whole entry): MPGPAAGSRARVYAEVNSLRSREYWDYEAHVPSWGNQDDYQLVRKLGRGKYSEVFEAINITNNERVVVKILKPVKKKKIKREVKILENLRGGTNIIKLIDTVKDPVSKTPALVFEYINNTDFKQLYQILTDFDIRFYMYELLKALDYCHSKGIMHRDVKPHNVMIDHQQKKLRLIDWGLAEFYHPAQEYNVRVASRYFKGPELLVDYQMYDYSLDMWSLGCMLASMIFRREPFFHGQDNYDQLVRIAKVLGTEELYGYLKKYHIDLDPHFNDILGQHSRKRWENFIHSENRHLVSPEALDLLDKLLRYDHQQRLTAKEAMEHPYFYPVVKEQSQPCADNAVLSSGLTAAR
Procedure: as §1

JAK2(h) = biological target: T18, JAK2(h) (Homo sapiens, UniProt O60674); experiment: Kinase selectivity panel: JAK2; conditions: 1 µM
T18 construct: purchased Eurofins (Millipore) KinaseProfiler Diversity Panel
Procedure: as §1

LOK(h) = biological target: T19, LOK(h) (Homo sapiens, UniProt O94804); experiment: Kinase selectivity panel: LOK
T19 construct: purchased Eurofins (Millipore) KinaseProfiler Diversity Panel
T19 sequence (O94804 whole entry): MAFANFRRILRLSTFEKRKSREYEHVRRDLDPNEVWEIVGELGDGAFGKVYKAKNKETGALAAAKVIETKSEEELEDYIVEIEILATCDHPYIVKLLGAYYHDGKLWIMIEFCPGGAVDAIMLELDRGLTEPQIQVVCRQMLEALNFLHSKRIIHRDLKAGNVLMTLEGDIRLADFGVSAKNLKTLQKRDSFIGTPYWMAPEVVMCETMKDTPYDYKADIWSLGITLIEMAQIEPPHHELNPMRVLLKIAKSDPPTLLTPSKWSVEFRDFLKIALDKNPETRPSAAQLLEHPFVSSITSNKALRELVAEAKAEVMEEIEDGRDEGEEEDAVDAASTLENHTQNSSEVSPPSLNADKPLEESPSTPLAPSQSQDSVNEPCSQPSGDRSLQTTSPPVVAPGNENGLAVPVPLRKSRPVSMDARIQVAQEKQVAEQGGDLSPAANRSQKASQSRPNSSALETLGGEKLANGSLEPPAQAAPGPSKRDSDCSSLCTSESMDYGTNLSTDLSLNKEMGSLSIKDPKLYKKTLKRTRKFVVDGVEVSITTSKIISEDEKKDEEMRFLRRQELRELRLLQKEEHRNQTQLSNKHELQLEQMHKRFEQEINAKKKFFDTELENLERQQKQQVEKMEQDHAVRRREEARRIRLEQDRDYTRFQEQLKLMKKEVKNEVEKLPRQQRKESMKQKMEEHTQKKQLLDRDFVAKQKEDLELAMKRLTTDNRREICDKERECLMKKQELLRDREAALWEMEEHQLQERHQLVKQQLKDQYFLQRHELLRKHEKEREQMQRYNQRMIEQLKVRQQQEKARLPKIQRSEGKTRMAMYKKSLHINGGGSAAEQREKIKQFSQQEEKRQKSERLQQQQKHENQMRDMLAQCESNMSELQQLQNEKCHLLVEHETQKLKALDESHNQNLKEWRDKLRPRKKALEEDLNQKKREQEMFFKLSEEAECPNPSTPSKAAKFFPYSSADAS
Procedure: as §1

MEK1(h) = biological target: T20, MEK1(h) (Homo sapiens, UniProt Q02750); experiment: Kinase selectivity panel: MEK1; conditions: 1 µM
T20 construct: purchased Eurofins (Millipore) KinaseProfiler Diversity Panel
Procedure: as §1

[2] = biological target: T21, PI3 Kinase (p110b/p85a)(h) (Homo sapiens, UniProt P42338); experiment: Kinase selectivity panel: PI3 Kinase (p110b/p85a)
T21 construct: purchased Eurofins (Millipore) KinaseProfiler Diversity Panel
Procedure: as §1

IKKα(h) = biological target: T22, IKKα(h) (Homo sapiens, UniProt O15111); experiment: Kinase selectivity panel: IKKα
T22 construct: purchased Eurofins (Millipore) KinaseProfiler Diversity Panel
Procedure: as §1

BTK(R28H)(h) = biological target: T23, BTK(R28H)(h) (Homo sapiens, UniProt Q06187, R28H); experiment: Kinase selectivity panel: BTK(R28H); conditions: 1 µM
T23 construct: purchased Eurofins (Millipore) KinaseProfiler Diversity Panel
Procedure: as §1

RIPK2(h) = biological target: T24, RIPK2(h) (Homo sapiens, UniProt O43353); experiment: Kinase selectivity panel: RIPK2
T24 construct: purchased Eurofins (Millipore) KinaseProfiler Diversity Panel
T24 sequence (O43353 whole entry): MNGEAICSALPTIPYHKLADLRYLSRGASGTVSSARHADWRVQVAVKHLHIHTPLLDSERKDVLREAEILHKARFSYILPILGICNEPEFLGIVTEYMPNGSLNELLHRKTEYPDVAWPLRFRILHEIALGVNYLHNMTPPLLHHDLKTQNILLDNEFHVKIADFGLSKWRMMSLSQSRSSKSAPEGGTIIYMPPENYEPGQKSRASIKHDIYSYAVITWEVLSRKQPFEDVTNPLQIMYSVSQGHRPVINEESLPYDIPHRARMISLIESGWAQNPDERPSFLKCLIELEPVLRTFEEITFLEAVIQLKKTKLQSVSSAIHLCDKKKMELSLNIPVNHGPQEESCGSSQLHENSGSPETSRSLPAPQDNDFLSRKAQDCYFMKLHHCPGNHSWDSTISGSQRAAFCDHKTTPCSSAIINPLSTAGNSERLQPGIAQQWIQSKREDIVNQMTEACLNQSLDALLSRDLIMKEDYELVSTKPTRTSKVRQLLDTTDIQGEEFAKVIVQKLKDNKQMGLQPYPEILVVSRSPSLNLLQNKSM
Procedure: as §1

CHK1(h) = biological target: T25, CHK1(h) (Homo sapiens, UniProt O14757); experiment: Kinase selectivity panel: CHK1
T25 construct: purchased Eurofins (Millipore) KinaseProfiler Diversity Panel
Procedure: as §1

PAK2(h) = biological target: T26, PAK2(h) (Homo sapiens, UniProt Q13177); experiment: Kinase selectivity panel: PAK2; conditions: 1 µM
T26 construct: purchased Eurofins (Millipore) KinaseProfiler Diversity Panel
Procedure: as §1

JAK1(h) = biological target: T27, JAK1(h) (Homo sapiens, UniProt P23458); experiment: Kinase selectivity panel: JAK1
T27 construct: purchased Eurofins (Millipore) KinaseProfiler Diversity Panel
Procedure: as §1

mTOR(h) = biological target: T28, mTOR(h) (Homo sapiens, UniProt P42345); experiment: Kinase selectivity panel: mTOR
T28 construct: purchased Eurofins (Millipore) KinaseProfiler Diversity Panel
Procedure: as §1

Fyn(h) = biological target: T29, Fyn(h) (Homo sapiens, UniProt P06241); experiment: Kinase selectivity panel: Fyn
T29 construct: purchased Eurofins (Millipore) KinaseProfiler Diversity Panel
T29 sequence (P06241 whole entry): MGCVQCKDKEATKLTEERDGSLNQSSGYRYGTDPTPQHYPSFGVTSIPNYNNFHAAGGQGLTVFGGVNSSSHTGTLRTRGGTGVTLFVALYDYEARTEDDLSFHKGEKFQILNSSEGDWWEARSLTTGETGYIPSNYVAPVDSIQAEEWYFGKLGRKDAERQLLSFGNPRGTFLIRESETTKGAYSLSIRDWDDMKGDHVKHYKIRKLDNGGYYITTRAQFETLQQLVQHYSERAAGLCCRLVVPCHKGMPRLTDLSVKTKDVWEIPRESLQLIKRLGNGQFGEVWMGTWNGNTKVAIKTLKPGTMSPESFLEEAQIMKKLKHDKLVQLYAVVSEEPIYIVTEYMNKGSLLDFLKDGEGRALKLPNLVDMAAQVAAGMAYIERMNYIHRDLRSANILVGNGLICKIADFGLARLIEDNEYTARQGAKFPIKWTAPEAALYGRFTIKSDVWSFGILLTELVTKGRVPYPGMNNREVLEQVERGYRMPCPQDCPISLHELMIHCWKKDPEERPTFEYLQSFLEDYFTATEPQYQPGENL
Procedure: as §1

MST1(h) = biological target: T30, MST1(h) (Homo sapiens, UniProt Q13043); experiment: Kinase selectivity panel: MST1
T30 construct: purchased Eurofins (Millipore) KinaseProfiler Diversity Panel
Procedure: as §1

## c1cc(-c2ccc3nccc(Nc4ccc5scnc5c4)c3c2)ccn1 [Compound 14, N-(6-(pyridin-4-yl)quinolin-4-yl)benzo[d]thiazol-5-amine]
p70S6K(h)
  Remaining kinase activity (% of control) at 1 µM compound 14: 95
MAPKAP-K2(h)
  percent remaining MAPKAP-K2 activity: 95
eEF-2K(h)
  remaining kinase activity (% of control) with compound 14 at 1 µM: 102
[1]
  Remaining kinase activity (% of control): 54
RIPK1
  RIPK1 IR@1µM (%): <1%
TAK1(h)
  Remaining kinase activity (% of control): 90
Abl(h); 1 µM
  Abl remaining activity (% of control): 9
Abl(h); at 1 µM
  inhibition at 1 µM: > 90%
PKA(h)
  Remaining kinase activity (% of control): 117
EGFR(h)
  EGFR(h), 14 @ 1 µM: 104
CDK2/cyclinA(h)
  CDK2/cyclinA remaining activity (%) with compound 14 at 1 µM: 78
ASK1(h)
  ASK1 remaining activity (% of control) with compound 14 at 1 µM: 87
GSK3β(h)
  remaining kinase activity (%): 75
Mnk2(h)
  Mnk2 remaining activity (% of control) with compound 14 at 1 µM: 68
TBK1(h)
  TBK1 remaining activity (%) with compound 14 at 1 µM: 97
PKG1α(h)
  Remaining PKG1α activity (% of control) with compound 14 at 1 µM: 64
PDGFRβ(h)
  Remaining kinase activity at 1 µM (% of control): 64
CK2α2(h)
  Remaining CK2α2 kinase activity (%) with compound 14 at 1 µM: 104
JAK2(h)
  remaining kinase activity (%): 93
LOK(h); 1 µM
  LOK remaining activity (% of control): 44
LOK(h); at 1 µM
  inhibition at 1 µM: 50 to 90%
MEK1(h)
  % remaining MEK1 activity: 105
[2]
  remaining kinase activity (% of control) with compound 14 at 1 µM: 88
IKKα(h)
  Remaining IKKα activity at 1 µM (% of control): 104
BTK(R28H)(h)
  percent remaining kinase activity: 63
RIPK2(h); 1 µM
  RIPK2 remaining activity (% of control): 3
RIPK2(h); at 1 µM
  inhibition at 1 µM: > 90%
CHK1(h)
  CHK1 remaining activity (% of control) at 1 µM: 100
PAK2(h)
  percent remaining kinase activity: 100
JAK1(h)
  JAK1 remaining kinase activity with compound 14 at 1 µM (% of control): 105
mTOR(h)
  % remaining mTOR activity with compound 14 at 1 µM: 106
Fyn(h); 1 µM
  Fyn remaining activity (%): 0
Fyn(h); at 1 µM
  inhibition at 1 µM: > 90%
MST1(h)
  MST1 kinase activity remaining with compound 14 at 1 µM (% of control): 105
